Experimental data as given in ChEMBL document CHEMBL3352005, “Synthesis of a novel universal opioid receptor agonist with the 1,3,5-trioxazatriquinane skeleton and its pharmacologies” (Bioorg Med Chem Lett, 2014).

Columns and labels:
[1] = target: Delta-type opioid receptor (Mus musculus, UniProt P32300); experiment: Displacement of [3H]DPDPE from mouse whole brain DOR
Mu-type opioid receptor [2] = target: Mu-type opioid receptor (Mus musculus, UniProt P42866); experiment: Displacement of [3H]DAMGO from mouse whole brain MOR
[3] = target: Kappa-type opioid receptor (Cavia porcellus, UniProt P41144); experiment: Displacement of [3H]U-69593 from guinea pig cerebellum KOR
Mu-type opioid receptor [4] = target: T1, Mu-type opioid receptor (Homo sapiens, UniProt P35372); experiment: Agonist activity at human MOR expressed in CHO cells by [35S]GTPgammaS binding assay; format: functional, cell-based
[5] = target: T2, Delta-type opioid receptor (Homo sapiens, UniProt P41143); experiment: Agonist activity at human DOR expressed in CHO cells by [35S]GTPgammaS binding assay relative to DPDPE; format: functional, cell-based
[6] = target: T3, Kappa-type opioid receptor (Homo sapiens, UniProt P41145); experiment: Agonist activity at human KOR expressed in CHO cells by [35S]GTPgammaS binding assay relative to U-69593; format: functional, cell-based
[7] = target: T3, Kappa-type opioid receptor; experiment: Agonist activity at human KOR expressed in CHO cells by [35S]GTPgammaS binding assay; format: functional, cell-based
Mu-type opioid receptor [8] = target: T1, Mu-type opioid receptor; experiment: Agonist activity at human MOR expressed in CHO cells by [35S]GTPgammaS binding assay relative to DAMGO; format: functional, cell-based
[9] = target: T2, Delta-type opioid receptor; experiment: Agonist activity at human DOR expressed in CHO cells by [35S]GTPgammaS binding assay; format: functional, cell-based

Sequence of Delta-type opioid receptor (Mus musculus, UniProt P32300) (P32300 whole entry): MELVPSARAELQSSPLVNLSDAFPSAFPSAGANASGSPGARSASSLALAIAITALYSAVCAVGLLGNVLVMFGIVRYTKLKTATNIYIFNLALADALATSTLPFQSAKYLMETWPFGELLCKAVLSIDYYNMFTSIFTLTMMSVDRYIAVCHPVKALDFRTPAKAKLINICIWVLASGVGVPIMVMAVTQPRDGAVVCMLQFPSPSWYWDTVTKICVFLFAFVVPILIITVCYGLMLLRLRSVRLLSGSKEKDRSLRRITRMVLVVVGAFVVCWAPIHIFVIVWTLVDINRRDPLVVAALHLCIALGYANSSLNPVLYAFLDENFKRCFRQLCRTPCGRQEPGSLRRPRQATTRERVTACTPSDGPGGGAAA
Sequence of Mu-type opioid receptor (Mus musculus, UniProt P42866) (P42866 whole entry): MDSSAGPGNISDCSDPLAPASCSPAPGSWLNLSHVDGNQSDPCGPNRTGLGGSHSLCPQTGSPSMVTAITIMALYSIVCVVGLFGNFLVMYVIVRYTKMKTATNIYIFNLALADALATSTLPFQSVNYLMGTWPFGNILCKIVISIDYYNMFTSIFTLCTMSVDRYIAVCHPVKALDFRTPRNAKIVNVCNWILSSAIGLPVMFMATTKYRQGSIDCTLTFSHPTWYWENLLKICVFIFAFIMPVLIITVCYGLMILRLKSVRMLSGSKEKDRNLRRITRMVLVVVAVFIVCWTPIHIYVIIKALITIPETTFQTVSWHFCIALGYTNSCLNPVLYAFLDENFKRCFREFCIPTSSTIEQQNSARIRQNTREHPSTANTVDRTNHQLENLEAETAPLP
Sequence of Kappa-type opioid receptor (Cavia porcellus, UniProt P41144) (P41144 whole entry): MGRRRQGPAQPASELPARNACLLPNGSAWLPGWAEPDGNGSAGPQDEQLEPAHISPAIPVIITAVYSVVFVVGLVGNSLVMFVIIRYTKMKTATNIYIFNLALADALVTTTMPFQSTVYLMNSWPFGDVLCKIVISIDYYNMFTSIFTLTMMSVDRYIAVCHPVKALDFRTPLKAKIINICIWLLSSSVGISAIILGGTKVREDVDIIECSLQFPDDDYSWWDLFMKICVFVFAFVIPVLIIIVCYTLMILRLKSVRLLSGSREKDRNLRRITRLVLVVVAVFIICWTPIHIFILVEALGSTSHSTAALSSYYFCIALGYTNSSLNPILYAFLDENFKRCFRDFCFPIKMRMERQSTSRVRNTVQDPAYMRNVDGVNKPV
T3 sequence (P41145 whole entry): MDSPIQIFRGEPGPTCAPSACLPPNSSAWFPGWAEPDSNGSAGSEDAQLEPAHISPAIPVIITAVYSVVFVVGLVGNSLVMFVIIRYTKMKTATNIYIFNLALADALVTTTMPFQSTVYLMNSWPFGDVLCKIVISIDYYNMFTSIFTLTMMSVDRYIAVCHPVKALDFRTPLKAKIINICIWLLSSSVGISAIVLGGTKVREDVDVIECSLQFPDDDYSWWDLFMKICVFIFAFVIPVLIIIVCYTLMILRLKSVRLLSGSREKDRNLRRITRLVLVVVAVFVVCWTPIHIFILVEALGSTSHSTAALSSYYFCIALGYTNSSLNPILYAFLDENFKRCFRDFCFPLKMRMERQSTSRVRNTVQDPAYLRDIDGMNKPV
T1 sequence (P35372 whole entry): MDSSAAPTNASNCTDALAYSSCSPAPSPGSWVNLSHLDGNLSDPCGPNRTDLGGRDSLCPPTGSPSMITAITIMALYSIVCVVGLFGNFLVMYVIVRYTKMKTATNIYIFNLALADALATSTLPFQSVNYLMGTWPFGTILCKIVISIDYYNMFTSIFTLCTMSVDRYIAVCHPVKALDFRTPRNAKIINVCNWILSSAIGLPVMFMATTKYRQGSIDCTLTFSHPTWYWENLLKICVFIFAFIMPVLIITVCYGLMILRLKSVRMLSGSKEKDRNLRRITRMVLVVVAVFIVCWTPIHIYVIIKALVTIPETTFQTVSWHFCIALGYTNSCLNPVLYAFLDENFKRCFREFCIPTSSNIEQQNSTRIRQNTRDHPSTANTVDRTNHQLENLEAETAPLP
T2 sequence (P41143 whole entry): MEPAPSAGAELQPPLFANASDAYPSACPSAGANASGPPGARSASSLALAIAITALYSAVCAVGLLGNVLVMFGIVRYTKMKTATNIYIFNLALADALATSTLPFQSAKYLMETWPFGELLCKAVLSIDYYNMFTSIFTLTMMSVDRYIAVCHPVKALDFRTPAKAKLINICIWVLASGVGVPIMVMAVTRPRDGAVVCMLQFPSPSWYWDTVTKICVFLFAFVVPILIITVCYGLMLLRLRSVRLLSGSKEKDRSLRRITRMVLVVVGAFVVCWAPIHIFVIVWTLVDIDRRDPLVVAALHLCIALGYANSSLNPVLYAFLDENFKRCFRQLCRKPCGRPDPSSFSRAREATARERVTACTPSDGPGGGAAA

## C[C@@]1(c2ccc(O)cc2)O[C@@H]2N3[C@H]1O[C@](C)(c1ccc(O)cc1)[C@@H]3O[C@@]2(C)c1ccc(O)cc1
[1]
  Ki: > 1000 nM
Mu-type opioid receptor [2]
  Ki: > 1000 nM
[3]
  Ki: > 1000 nM

## C[C@@]1(c2ccc(O)cc2)O[C@@H]2N3[C@H](CO[C@H]31)O[C@]2(C)c1ccc(O)cc1
[1]
  Ki: > 1000 nM
Mu-type opioid receptor [2]
  Ki: > 1000 nM
[3]
  Ki: > 1000 nM

## C[C@]1(c2ccccc2O)O[C@H]2CO[C@@H]3N2[C@H]1O[C@]3(C)c1ccccc1O
[1]
  Ki: > 1000 nM
Mu-type opioid receptor [2]
  Ki: > 1000 nM
[3]
  Ki: > 1000 nM

## C[C@@]1(c2ccccc2O)O[C@H]2CO[C@H]3CO[C@@H]1N32
[1]
  Ki: > 1000 nM
Mu-type opioid receptor [2]
  Ki: > 1000 nM
[3]
  Ki: > 1000 nM

## C[C@]1(c2ccc(O)cc2)O[C@H]2CO[C@H]3CO[C@@H]1N32
[1]
  Ki: > 1000 nM
Mu-type opioid receptor [2]
  Ki: > 1000 nM
[3]
  Ki: > 1000 nM

## C[C@@]1(c2ccc(O)cc2)O[C@H]2CO[C@H]3CO[C@@H]1N32
[1]
  Ki: > 1000 nM
Mu-type opioid receptor [2]
  Ki: > 1000 nM
[3]
  Ki: > 1000 nM

## C[C@@]1(c2ccccc2O)O[C@@H]2N3[C@H]1O[C@@](C)(c1ccccc1O)[C@@H]3O[C@@]2(C)c1ccccc1O
[1]
  Ki: > 1000 nM
Mu-type opioid receptor [2]
  Ki: > 1000 nM
[3]
  Ki: > 1000 nM

## C[C@@]1(c2ccc(O)cc2)O[C@H]2CO[C@@H]3N2[C@H]1O[C@]3(C)c1ccc(O)cc1
[1]
  Ki: > 1000 nM
Mu-type opioid receptor [2]
  Ki: > 1000 nM
[3]
  Ki: > 1000 nM

## C[C@@]1(c2ccccc2O)O[C@@H]2N3[C@H](CO[C@H]31)O[C@]2(C)c1ccccc1O
[1]
  Ki: 88.8 nM
Mu-type opioid receptor [4]
  EC50: 57.6 nM
[5]
  Emax: 73.6%
[6]
  Emax: 131%
Mu-type opioid receptor [2]
  Ki: 20.5 nM
[7]
  EC50: 9.95 nM
[3]
  Ki: 9.17 nM
Mu-type opioid receptor [8]
  Emax: 89.2%
[9]
  EC50: 52.7 nM

## C[C@@]1(c2ccccc2O)O[C@@H]2N3[C@H]1O[C@](C)(c1ccccc1O)[C@@H]3O[C@@]2(C)c1ccccc1O
[1]
  Ki: > 1000 nM
Mu-type opioid receptor [2]
  Ki: > 1000 nM
[3]
  Ki: > 1000 nM

## C[C@@]1(c2ccc(O)cc2)O[C@@H]2N3[C@H]1O[C@](C)(c1ccc(O)cc1)[C@@H]3O[C@]2(C)c1ccc(O)cc1
[1]
  Ki: > 1000 nM
Mu-type opioid receptor [2]
  Ki: > 1000 nM
[3]
  Ki: > 1000 nM

## C[C@@]1(c2ccc(O)cc2)O[C@H]2CO[C@@H]3N2[C@H]1O[C@@]3(C)c1ccc(O)cc1
[1]
  Ki: > 1000 nM
Mu-type opioid receptor [2]
  Ki: > 1000 nM
[3]
  Ki: > 1000 nM

## C[C@@]1(c2ccccc2O)O[C@@H]2N3[C@H]1O[C@](C)(c1ccccc1O)[C@@H]3O[C@]2(C)c1ccccc1O
[1]
  Ki: > 1000 nM
Mu-type opioid receptor [2]
  Ki: > 1000 nM
[3]
  Ki: > 1000 nM

## C[C@]1(c2ccc(O)cc2)O[C@H]2CO[C@@H]3N2[C@H]1O[C@]3(C)c1ccc(O)cc1
[1]
  Ki: > 1000 nM
Mu-type opioid receptor [2]
  Ki: > 1000 nM
[3]
  Ki: > 1000 nM

## C[C@@]1(c2ccc(O)cc2)O[C@@H]2N3[C@H]1O[C@@](C)(c1ccc(O)cc1)[C@@H]3O[C@@]2(C)c1ccc(O)cc1
[1]
  Ki: > 1000 nM
Mu-type opioid receptor [2]
  Ki: > 1000 nM
[3]
  Ki: > 1000 nM

## C[C@]1(c2ccccc2O)O[C@H]2CO[C@H]3CO[C@@H]1N32
[1]
  Ki: > 1000 nM
Mu-type opioid receptor [2]
  Ki: > 1000 nM
[3]
  Ki: > 1000 nM

## C[C@@]1(c2ccccc2O)O[C@H]2CO[C@@H]3N2[C@H]1O[C@]3(C)c1ccccc1O
[1]
  Ki: > 1000 nM
Mu-type opioid receptor [2]
  Ki: > 1000 nM
[3]
  Ki: > 1000 nM

## C[C@@]1(c2ccccc2O)O[C@H]2CO[C@@H]3N2[C@H]1O[C@@]3(C)c1ccccc1O
[1]
  Ki: > 1000 nM
Mu-type opioid receptor [2]
  Ki: > 1000 nM
[3]
  Ki: > 1000 nM
